Reference: PubChem BioAssay (NCI)
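The compound was tested at five concentrations on cells cultured in 96-well plates, with a 48-hour exposure period. TGI: concentration producing complete growth inhibition.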

How the values were obtained:
Test in all cases: NCI tumour cell line growth inhibition, 48 h
HT29 colon = system: HT29 colon
NCI-H226 lung = system: NCI-H226 lung
MCF7 breast = system: MCF7 breast
RPMI-8226 leukemia = system: RPMI-8226 leukemia
NCI-H23 lung = system: NCI-H23 lung
RXF 393 renal = system: RXF 393 renal
SK-OV-3 ovarian = system: SK-OV-3 ovarian
SF-268 CNS = system: SF-268 CNS
CAKI-1 renal = system: CAKI-1 renal
UACC-257 melanoma = system: UACC-257 melanoma
CCRF-CEM leukemia = system: CCRF-CEM leukemia
IGROV1 ovarian = system: IGROV1 ovarian
LOX IMVI melanoma = system: LOX IMVI melanoma
MDA-MB-231 breast = system: MDA-MB-231 breast
SW-620 colon = system: SW-620 colon
SF-295 CNS = system: SF-295 CNS
OVCAR-3 ovarian = system: OVCAR-3 ovarian
NCI-H522 lung = system: NCI-H522 lung
T-47D breast = system: T-47D breast
MOLT-4 leukemia = system: MOLT-4 leukemia
HOP-62 NSCLC = system: HOP-62 NSCLC
U251 CNS = system: U251 CNS
SK-MEL-5 melanoma = system: SK-MEL-5 melanoma
MDA-N = system: MDA-N
BT-549 breast = system: BT-549 breast
SR leukemia = system: SR leukemia
OVCAR-5 ovarian = system: OVCAR-5 ovarian
HCT-116 colon = system: HCT-116 colon
SF-539 CNS = system: SF-539 CNS
MDA-MB-435 = system: MDA-MB-435
HL-60(TB) leukemia = system: HL-60(TB) leukemia
HS 578T breast = system: HS 578T breast
SK-MEL-28 melanoma = system: SK-MEL-28 melanoma
HOP-92 NSCLC = system: HOP-92 NSCLC
SNB-19 CNS = system: SNB-19 CNS
COLO 205 colon = system: COLO 205 colon
OVCAR-8 ovarian = system: OVCAR-8 ovarian
NCI-H460 lung = system: NCI-H460 lung
KM12 colon = system: KM12 colon
A549 NSCLC = system: A549 NSCLC
EKVX NSCLC = system: EKVX NSCLC
UO-31 renal = system: UO-31 renal
MALME-3M melanoma = system: MALME-3M melanoma
SK-MEL-2 melanoma = system: SK-MEL-2 melanoma
HCT-15 colon = system: HCT-15 colon
HCC-2998 colon = system: HCC-2998 colon
TK-10 renal = system: TK-10 renal
SN12C renal = system: SN12C renal
ACHN renal = system: ACHN renal
NCI/ADR-RES ovarian = system: NCI/ADR-RES ovarian
786-0 renal = system: 786-0 renal
M14 melanoma = system: M14 melanoma
PC-3 prostate = system: PC-3 prostate
A498 renal = system: A498 renal
DU-145 prostate = system: DU-145 prostate
UACC-62 melanoma = system: UACC-62 melanoma
OVCAR-4 ovarian = system: OVCAR-4 ovarian
SNB-75 CNS = system: SNB-75 CNS
K-562 leukemia = system: K-562 leukemia

Measured: TGI

COc1cc2c(cc1OC)C13CCN4CC5CCOC6CC(=O)N2C1C6C5CC43 (stereo not given)
> 100 µM: HT29 colon | NCI-H226 lung | MCF7 breast | RPMI-8226 leukemia | NCI-H23 lung | RXF 393 renal | SK-OV-3 ovarian | SF-268 CNS | CAKI-1 renal | UACC-257 melanoma | CCRF-CEM leukemia | IGROV1 ovarian | LOX IMVI melanoma | MDA-MB-231 breast | SW-620 colon | SF-295 CNS | OVCAR-3 ovarian | NCI-H522 lung | T-47D breast | MOLT-4 leukemia | HOP-62 NSCLC | U251 CNS | SK-MEL-5 melanoma | MDA-N | BT-549 breast | SR leukemia | OVCAR-5 ovarian | HCT-116 colon | SF-539 CNS | MDA-MB-435 | HL-60(TB) leukemia | HS 578T breast | SK-MEL-28 melanoma | HOP-92 NSCLC | SNB-19 CNS | COLO 205 colon | OVCAR-8 ovarian | NCI-H460 lung | KM12 colon | A549 NSCLC | EKVX NSCLC | UO-31 renal | MALME-3M melanoma | SK-MEL-2 melanoma | HCT-15 colon | HCC-2998 colon | TK-10 renal | SN12C renal | ACHN renal | NCI/ADR-RES ovarian | 786-0 renal | M14 melanoma | PC-3 prostate | A498 renal | DU-145 prostate | UACC-62 melanoma | OVCAR-4 ovarian

O=C1c2ccccc2S(=O)(=O)c2cc(-c3nn[nH]n3)ccc21
> 100 µM: HT29 colon | NCI-H226 lung | MCF7 breast | NCI-H23 lung | RXF 393 renal | SK-OV-3 ovarian | SF-268 CNS | SNB-75 CNS | CAKI-1 renal | UACC-257 melanoma | CCRF-CEM leukemia | IGROV1 ovarian | LOX IMVI melanoma | MDA-MB-231 breast | SW-620 colon | SF-295 CNS | OVCAR-3 ovarian | NCI-H522 lung | T-47D breast | MOLT-4 leukemia | HOP-62 NSCLC | U251 CNS | SK-MEL-5 melanoma | MDA-N | BT-549 breast | SR leukemia | OVCAR-5 ovarian | HCT-116 colon | SF-539 CNS | MDA-MB-435 | HL-60(TB) leukemia | HS 578T breast | SK-MEL-28 melanoma | HOP-92 NSCLC | SNB-19 CNS | COLO 205 colon | OVCAR-8 ovarian | NCI-H460 lung | KM12 colon | A549 NSCLC | EKVX NSCLC | UO-31 renal | K-562 leukemia | MALME-3M melanoma | SK-MEL-2 melanoma | HCT-15 colon | HCC-2998 colon | TK-10 renal | SN12C renal | ACHN renal | NCI/ADR-RES ovarian | 786-0 renal | M14 melanoma | PC-3 prostate | A498 renal | DU-145 prostate | UACC-62 melanoma | OVCAR-4 ovarian
